According to patent US20260373148A1, “5-FLUOROURACIL DERIVATIVE AND ANTI-TUMOR USE THEREOF” (SICHUAN UNIVERSITY, priority 2023, published 2026):
pIC50: −log10 of the molar value. “Also recorded” adds a separate entry of the source.

Tests used:
[1] = tested on: squamous cell carcinoma cells HN30, HN12, Cal-27, and HSC-3; assay: Inhibitory effect of compounds on the proliferation of squamous cell carcinoma cells HN30, HN12, Cal-27, HSC-3 (CCK-8 assay); format: cell-based; conditions: in words, 48 hours; for inhibitory effect on the proliferation of tumor cells: HN30, HN12, Cal-27, HSC-3, 0, 1.25, 2.5, 5, 10 μM
Procedure: (§1) Squamous cell carcinoma cell lines: HN30, HN12, Cal-27, HSC-3.
(§2) Test compounds: Compounds 3a, 3b, 3c; Compound 1 (i.e., 5-fluorouracil).
(§3) The experimental procedure was as follows: All four tumor cell lines were cultured in a standardized incubator at 37 °C with 5% CO2. Cells in logarithmic growth phase were digested, counted, and seeded onto 96-well plates at 3000 cells/well. They were then cultured overnight in the incubator. The test compounds were prepared into a stock solution with DMSO at a concentration of 10 mM, and were diluted sequentially (0, 1.25, 2.5, 5, 10 μM) before treating the cells. The control group was treated with the highest concentration of DMSO. The cells were cultured for additional 48 hours in the incubator, and the effect of each compound on the proliferation of the four tumor cell lines was assessed using CCK-8 assay. Meanwhile, the experimental results of compound 3a and compound 1 were analyzed to obtain their IC50 values, and the effects of both compounds on tumor cell proliferation were compared.

[2] = tested on: Cal27 cells; assay: Inhibition of proliferation of Cal27 squamous cell carcinoma cells (CCK-8 assay); format: cell-based; conditions: Homo sapiens, CAL-27, 48 hours, 0, 1.25, 2.5, 5, 10 μM, read-out: IC50 values against Cal27 cells
Procedure: as §1, §2, §3

[3] = tested on: HN30 cells; assay: Inhibition of proliferation of HN30 squamous cell carcinoma cells (CCK-8 assay); format: cell-based; conditions: 48 hours, 0, 1.25, 2.5, 5, 10 μM, read-out: IC50 values against HN30 cells
Procedure: as §1, §2, §3

[4] = tested on: OSCC cells; conditions: in words; Heilongjiang Medicine and Pharmacy, February 2009; cited from earlier work

| Compound | inhibitory effect on the proliferation of tumor cells [1] | pIC50 [2] | pIC50 [3] | induction of apoptosis in OSCC cells [4] | IC50 value compared with compound 1 ([1]; compound 3a versus compound 1, FIGS. 2 and 3 (HN30 and Cal27)) |
| --- | --- | --- | --- | --- | --- |
| O=C(CCn1cc(F)c(=O)[nH]c1=O)Nc1ccc(C23CC4CC(CC(C4)C2)C3)cc1 [Compound 3b] | did not show significant improvement |  |  |  |  |
| O=c1[nH]cc(F)c(=O)[nH]1 [Compound 1, 5-fluorouracil] | higher anti-tumor activity in a higher concentration range | 4.64 | 4.66 | can induce apoptosis in OSCC cells |  |
| O=C(CCn1cc(F)c(=O)n(CCC(=O)Nc2ccc(C34CC5CC(CC(C5)C3)C4)cc2)c1=O)Nc1ccc(C23CC4CC(CC(C4)C2)C3)cc1 [Compound 3a] | significantly better inhibitory effect than 5-fluorouracil; also recorded: significantly higher than that of compounds 1, 3b, and 3c; also recorded: significantly better than that of 5-fluorouracil | 5.18 | 5.15 |  | significantly lower than that of compound 1 |
| O=C(CCn1c(=O)[nH]cc(F)c1=O)Nc1ccc(C23CC4CC(CC(C4)C2)C3)cc1 [Compound 3c] | did not show significant improvement |  |  |  |  |
